Results: the supplement of paper PMC10307832

Key:
Test in all cases: relative viability (nuclei count vs DMSO), 5 days (fraction); higher = more cells survive
NCI-H2087 = test system: NCI-H2087
Method in brief: (§1)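 Relative viability was taken as the ratio of nuclei in treated wells to nuclei in vehicle wells. Lung cancer cell lines in 1536-well plates received compounds by pin tool one day after seeding, either one drug alone or a fixed anchor-drug dose plus five library-drug doses (not always all listed) in √10 steps. Nuclei were counted on 4× images after 5 days of treatment, and values are medians of duplicate plates.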

HCC-78 = test system: HCC-78
Method in brief: as §1

NCI-H1648 = test system: NCI-H1648
Method in brief: as §1

HCC-44 = test system: HCC-44
Method in brief: as §1

NCI-H322M = test system: NCI-H322M
Method in brief: as §1

NCI-H1563 = test system: NCI-H1563
Method in brief: as §1

In the case of `Cc1csc(=NC2CCCCC2)n1/N=C/c1ccc(O)c(O)c1O` [MIM1] + CC(=O)c1c(C)c2cnc(Nc3ccc(N4CCNCC4)cn3)nc2n(C2CCCC2)c1=O [Palbociclib] (partner 0.5 µM), the relative viability (NCI-H2087; first compound 0.2 µM) was 0.228, the relative viability (NCI-H2087; first compound 0.6325 µM) was 0.269 and the relative viability (NCI-H2087; first compound 2 µM) was 0.24. For the same compound, the relative viability (NCI-H2087; first compound 6.325 µM) was 0.226, the relative viability (NCI-H2087; first compound 20 µM) was 0.206 and the relative viability (HCC-78; first compound 0.2 µM) was 0.463. The relative viability (HCC-78; first compound 2 µM) was 0.494, the relative viability (HCC-78; first compound 6.325 µM) was 0.377 and the relative viability (HCC-78; first compound 20 µM) was 0.402. The relative viability (NCI-H1648; first compound 0.2 µM) was 0.262, the relative viability (NCI-H1648; first compound 0.6325 µM) was 0.284 and the relative viability (NCI-H1648; first compound 2 µM) was 0.311. For the same compound, the relative viability (NCI-H1648; first compound 6.325 µM) was 0.276, the relative viability (NCI-H1648; first compound 20 µM) was 0.248 and the relative viability (HCC-44; first compound 0.2 µM) was 0.902. It also gave a relative viability (HCC-44; first compound 0.6325 µM) of 0.981, a relative viability (HCC-44; first compound 2 µM) of 0.94 and a relative viability (HCC-44; first compound 6.325 µM) of 0.608. It also gave a relative viability (HCC-44; first compound 20 µM) of 0.578, a relative viability (NCI-H322M; first compound 0.2 µM) of 0.466 and a relative viability (NCI-H322M; first compound 0.6325 µM) of 0.466. For the same compound, the relative viability (NCI-H322M; first compound 2 µM) was 0.488, the relative viability (NCI-H322M; first compound 6.325 µM) was 0.459 and the relative viability (NCI-H322M; first compound 20 µM) was 0.384.

Work on `Cc1csc(=NC2CCCCC2)n1/N=C/c1ccc(O)c(O)c1O` [MIM1] + Nc1nc2[nH]cc(CCc3ccc(C(=O)N[C@@H](CCC(=O)O)C(=O)O)cc3)c2c(=O)[nH]1 [Pemetrexed] (partner 0.2 µM) yielded a relative viability (NCI-H2087; first compound 0.2 µM) of 0.593, a relative viability (NCI-H2087; first compound 0.6325 µM) of 0.724 and a relative viability (NCI-H2087; first compound 2 µM) of 0.729. The relative viability (NCI-H2087; first compound 6.325 µM) was 0.601, the relative viability (NCI-H2087; first compound 20 µM) was 0.644 and the relative viability (HCC-78; first compound 0.2 µM) was 0.851. The relative viability (HCC-78; first compound 2 µM) was 0.927, the relative viability (HCC-78; first compound 6.325 µM) was 0.858 and the relative viability (HCC-78; first compound 20 µM) was 0.919. For the same compound, the relative viability (NCI-H1648; first compound 0.2 µM) was 0.874, the relative viability (NCI-H1648; first compound 0.6325 µM) was 0.688 and the relative viability (NCI-H1648; first compound 2 µM) was 0.584. The relative viability (NCI-H1648; first compound 6.325 µM) was 0.544, the relative viability (NCI-H1648; first compound 20 µM) was 0.455 and the relative viability (HCC-44; first compound 0.2 µM) was 0.689. For the same compound, the relative viability (HCC-44; first compound 0.6325 µM) was 0.566, the relative viability (HCC-44; first compound 2 µM) was 0.601 and the relative viability (HCC-44; first compound 6.325 µM) was 0.468. For the same compound, the relative viability (HCC-44; first compound 20 µM) was 0.401, the relative viability (NCI-H322M; first compound 0.2 µM) was 0.614 and the relative viability (NCI-H322M; first compound 0.6325 µM) was 0.58. It also gave a relative viability (NCI-H322M; first compound 2 µM) of 0.558, a relative viability (NCI-H322M; first compound 6.325 µM) of 0.557 and a relative viability (NCI-H322M; first compound 20 µM) of 0.543. It also gave a relative viability (NCI-H1563; first compound 0.2 µM) of 0.883, a relative viability (NCI-H1563; first compound 0.6325 µM) of 0.905 and a relative viability (NCI-H1563; first compound 2 µM) of 0.651. The relative viability (NCI-H1563; first compound 6.325 µM) was 0.786 and the relative viability (NCI-H1563; first compound 20 µM) was 0.481.

`Cc1cn(-c2cc(NC(=O)c3ccc(C)c(Nc4nccc(-c5cccnc5)n4)c3)cc(C(F)(F)F)c2)cn1` [Nilotinib] + CC(=O)Nc1cccc(-n2c(=O)n(C3CC3)c(=O)c3c(Nc4ccc(I)cc4F)n(C)c(=O)c(C)c32)c1 [Trametinib] (partner 0.02 µM) was tested, and the relative viability (NCI-H2087; first compound 0.001 µM) was 0.189, the relative viability (NCI-H2087; first compound 0.003162 µM) was 0.322 and the relative viability (NCI-H2087; first compound 0.01 µM) was 0.153. It also gave a relative viability (NCI-H2087; first compound 0.03162 µM) of 0.143, a relative viability (NCI-H2087; first compound 0.1 µM) of 0.126 and a relative viability (HCC-78; first compound 0.001 µM) of 0.754. For the same compound, the relative viability (HCC-78; first compound 0.003162 µM) was 0.597, the relative viability (HCC-78; first compound 0.01 µM) was 0.956 and the relative viability (HCC-78; first compound 0.03162 µM) was 0.649. For the same compound, the relative viability (HCC-78; first compound 0.1 µM) was 0.863, the relative viability (NCI-H1648; first compound 0.001 µM) was 0.436 and the relative viability (NCI-H1648; first compound 0.003162 µM) was 0.434. For the same compound, the relative viability (NCI-H1648; first compound 0.01 µM) was 0.44, the relative viability (NCI-H1648; first compound 0.03162 µM) was 0.331 and the relative viability (NCI-H1648; first compound 0.1 µM) was 0.329. For the same compound, the relative viability (HCC-44; first compound 0.001 µM) was 0.951, the relative viability (HCC-44; first compound 0.003162 µM) was 1.03 and the relative viability (HCC-44; first compound 0.01 µM) was 1.21. It also gave a relative viability (HCC-44; first compound 0.1 µM) of 0.774, a relative viability (NCI-H322M; first compound 0.001 µM) of 0.538 and a relative viability (NCI-H322M; first compound 0.003162 µM) of 0.524. The relative viability (NCI-H322M; first compound 0.01 µM) was 0.476, the relative viability (NCI-H322M; first compound 0.03162 µM) was 0.613 and the relative viability (NCI-H322M; first compound 0.1 µM) was 0.465.

Work on `Cc1cn(-c2cc(NC(=O)c3ccc(C)c(Nc4nccc(-c5cccnc5)n4)c3)cc(C(F)(F)F)c2)cn1` [Nilotinib] + CC(=O)c1c(C)c2cnc(Nc3ccc(N4CCNCC4)cn3)nc2n(C2CCCC2)c1=O [Palbociclib] (partner 0.5 µM) yielded a relative viability (NCI-H2087; first compound 0.001 µM) of 0.219, a relative viability (NCI-H2087; first compound 0.003162 µM) of 0.204 and a relative viability (NCI-H2087; first compound 0.01 µM) of 0.213. For the same compound, the relative viability (NCI-H2087; first compound 0.03162 µM) was 0.187, the relative viability (NCI-H2087; first compound 0.1 µM) was 0.201 and the relative viability (HCC-78; first compound 0.001 µM) was 0.476. It also gave a relative viability (HCC-78; first compound 0.003162 µM) of 0.509, a relative viability (HCC-78; first compound 0.01 µM) of 0.532 and a relative viability (HCC-78; first compound 0.03162 µM) of 0.468. The relative viability (HCC-78; first compound 0.1 µM) was 0.524, the relative viability (NCI-H1648; first compound 0.001 µM) was 0.244 and the relative viability (NCI-H1648; first compound 0.003162 µM) was 0.319. The relative viability (NCI-H1648; first compound 0.01 µM) was 0.294, the relative viability (NCI-H1648; first compound 0.03162 µM) was 0.254 and the relative viability (NCI-H1648; first compound 0.1 µM) was 0.268. For the same compound, the relative viability (HCC-44; first compound 0.001 µM) was 0.911, the relative viability (HCC-44; first compound 0.003162 µM) was 0.933 and the relative viability (HCC-44; first compound 0.01 µM) was 0.927. It also gave a relative viability (HCC-44; first compound 0.1 µM) of 0.931, a relative viability (NCI-H322M; first compound 0.001 µM) of 0.512 and a relative viability (NCI-H322M; first compound 0.003162 µM) of 0.461. It also gave a relative viability (NCI-H322M; first compound 0.01 µM) of 0.534, a relative viability (NCI-H322M; first compound 0.03162 µM) of 0.527 and a relative viability (NCI-H322M; first compound 0.1 µM) of 0.602.
